In brackets after ≈: the same amount, converted by molar mass. Activity calls are given as the source filed them. The calls are words filed in the database; no cut-off is given here.
Assays:
[1] = MRT (0 to t) in Kunming mouse at 10 mg/kg, iv measured upto 24 hrs by LC-MS analysis; type: ADME, organism-based; conditions: in vivo
[2] = Cytotoxicity against human L02 cells assessed as cell viability upto 0.128 mmol/L measured after 24 hrs by MTT assay relative to control; type: toxicity, cell-based; conditions: up to 0.128 mM, read-out: Activity
[3] = tested on: Calf thymus DNA; assay: Induction of calf thymus DNA cleavage at 0.05 mmol/L incubated for 6 hrs by agarose gel electrophoresis method; type: nucleic-acid assay; conditions: Bos taurus
[4] = tested on: Acinetobacter baumannii; assay: Antibiofilm activity against Acinetobacter baumannii assessed as biofilm eradication at 0.016 mmol/L incubated for 24 hrs by crystal violet staining based analysis relative to control; type: functional
[5] = tested on: Pseudomonas aeruginosa; assay: Antibacterial activity against Pseudomonas aeruginosa assessed as bacterial growth inhibition incubated for 24 hrs by broth microdilution method; type: functional
[6] = Tmax in Kunming mouse at 10 mg/kg, iv measured upto 24 hrs by LC-MS analysis; type: ADME, organism-based; conditions: in vivo
[7] = tested on: Escherichia coli; assay: Antibacterial activity against Escherichia coli assessed as bacterial growth inhibition incubated for 24 hrs by broth microdilution method; type: functional
[8] = tested on: Acinetobacter baumannii; assay: Antibiofilm activity against Acinetobacter baumannii assessed as increase in biofilm eradication incubated for 24 hrs by crystal violet staining based analysis; type: functional, organism-based
[9] = Cytotoxicity against human L02 cells assessed as cell viability at effective concentration measured after 24 hrs by MTT assay relative to control; type: toxicity, cell-based; conditions: read-out: Activity
[10] = Cmax in Kunming mouse at 10 mg/kg, po measured upto 24 hrs by LC-MS analysis; type: ADME, organism-based; design: time < 24 hrs, dose 10 mg/kg, route po; conditions: in vivo
[11] = tested on: Calf thymus DNA; assay: Binding affinity to calf thymus DNA incubated overnight in presence of sodium chloride by sodium ion-quenching assay; type: nucleic-acid assay; conditions: Bos taurus
[12] = tested on: Klebsiella pneumoniae; assay: Antibacterial activity against Klebsiella pneumoniae assessed as bacterial growth inhibition incubated for 24 hrs by broth microdilution method; type: functional
[13] = tested on: Staphylococcus aureus; assay: Antibacterial activity against Staphylococcus aureus ATCC 25923 assessed as bacterial growth inhibition incubated for 24 hrs by broth microdilution method; type: functional
[14] = Oral bioavailability in Kunming mouse at 10 mg/kg measured upto 24 hrs by LC-MS analysis; type: ADME, organism-based; conditions: in vivo
[15] = Volume of distribution at steady state in Kunming mouse at 10 mg/kg, iv measured upto 24 hrs by LC-MS analysis; type: ADME, organism-based; conditions: in vivo, read-out: Vdss
[16] = Cytotoxicity against HEK293T cells assessed as cell viability at 0.256 mmol/L measured after 24 hrs by MTT assay relative to control; type: toxicity, cell-based, HEK-293T; conditions: human, read-out: Activity
[17] = AUMC (0 to infinity) in Kunming mouse at 10 mg/kg, iv measured upto 24 hrs by LC-MS analysis; type: ADME, organism-based; conditions: in vivo
[18] = tested on: Erythrocyte; assay: Hemolytic activity against human RBC assessed as change in cell morphology at 512 times MIC measured after 8 hrs by microscopic analysis; type: toxicity, cell-based
[19] = tested on: Calf thymus DNA; assay: Binding affinity to calf thymus DNA incubated for 5 mins by acridine orange displacement assay; type: nucleic-acid assay; conditions: Bos taurus
[20] = AUMC (0 to t) in Kunming mouse at 10 mg/kg, iv measured upto 24 hrs by LC-MS analysis; type: ADME, organism-based; conditions: in vivo
[21] = tested on: Calf thymus DNA; assay: Binding affinity to calf thymus DNA assessed as binding constant, K by absorbance based assay; type: nucleic-acid assay; conditions: Bos taurus
[22] = tested on: Staphylococcus aureus; assay: Antibacterial activity against Staphylococcus aureus assessed as bacterial growth inhibition incubated for 24 hrs by broth microdilution method; type: functional
[23] = tested on: Escherichia coli; assay: Antibacterial activity against Escherichia coli ATCC 25922 assessed as bacterial growth inhibition incubated for 24 hrs by broth microdilution method; type: functional
[24] = tested on: Calf thymus DNA; assay: Induction of calf thymus DNA cleavage at 0.05 mmol/L incubated for 6 hrs in presence of Cu2+ by agarose gel electrophoresis method; type: nucleic-acid assay; conditions: Bos taurus
[25] = tested on: Calf thymus DNA; assay: Induction of calf thymus DNA cleavage at 0.05 mmol/L incubated for 6 hrs in presence of Zn(NO3)2 by agarose gel electrophoresis method; type: nucleic-acid assay; conditions: Bos taurus
[26] = tested on: Calf thymus DNA; assay: Induction of calf thymus DNA cleavage at 0.05 mmol/L incubated for 6 hrs in presence of Zn2+ by agarose gel electrophoresis method; type: nucleic-acid assay; conditions: Bos taurus
[27] = MRT (0 to infinity) in Kunming mouse at 10 mg/kg, po measured upto 24 hrs by LC-MS analysis; type: ADME, organism-based; conditions: in vivo
[28] = tested on: Cell membrane; assay: Induction of outer membrane damage in Acinetobacter baumannii at 1 to 8 times MIC incubated for 30 mins by fluorescence based assay
[29] = Cmax in Kunming mouse at 10 mg/kg, iv measured upto 24 hrs by LC-MS analysis; type: ADME, organism-based; design: dose 10 mg/kg, time < 24 hrs, route iv; conditions: in vivo
[30] = tested on: Erythrocyte; assay: Hemolytic activity in human RBC at greater than MIC measured for 2 to 4 hrs by absorbance based assay; type: toxicity, cell-based; conditions: time 2-4 hrs
[31] = tested on: Enterococcus faecalis; assay: Antibacterial activity against Enterococcus faecalis assessed as bacterial growth inhibition incubated for 24 hrs by broth microdilution method; type: functional
[32] = Clearance in Kunming mouse at 10 mg/kg, po measured upto 24 hrs by LC-MS analysis; type: ADME, organism-based; conditions: in vivo
[33] = MRT (0 to t) in Kunming mouse at 10 mg/kg, po measured upto 24 hrs by LC-MS analysis; type: ADME, organism-based; conditions: in vivo
[34] = AUMC (0 to t) in Kunming mouse at 10 mg/kg, po measured upto 24 hrs by LC-MS analysis; type: ADME, organism-based; conditions: in vivo
[35] = tested on: Calf thymus DNA; assay: Binding affinity to calf thymus DNA incubated for 5 mins by DAPI displacement assay; type: nucleic-acid assay; conditions: Bos taurus
[36] = C0 in Kunming mouse at 10 mg/kg, iv measured upto 24 hrs by LC-MS analysis; type: ADME, organism-based; conditions: in vivo
[37] = tested on: Pseudomonas aeruginosa; assay: Antibacterial activity against Pseudomonas aeruginosa ATCC 27853 assessed as bacterial growth inhibition incubated for 24 hrs by broth microdilution method; type: functional
[38] = tested on: Staphylococcus aureus; assay: Antibacterial activity against methicillin-resistant Staphylococcus aureus assessed as bacterial growth inhibition incubated for 24 hrs by broth microdilution method; type: functional
[39] = tested on: Staphylococcus aureus; assay: Antibacterial activity against Staphylococcus aureus ATCC 29213 assessed as bacterial growth inhibition incubated for 24 hrs by broth microdilution method; type: functional
[40] = tested on: Cell membrane; assay: Induction of inner membrane damage in Acinetobacter baumannii at 1 to 8 times MIC incubated for 30 mins by fluorescence based assay
[41] = tested on: Acinetobacter baumannii; assay: Antibacterial activity against Acinetobacter baumannii infected in mouse assessed as log reduction in viable bacterial count at 30 mg/kg measured for 12 hrs; type: functional
[42] = Clearance in Kunming mouse at 10 mg/kg, iv measured upto 24 hrs by LC-MS analysis; type: ADME, organism-based; conditions: in vivo
[43] = tested on: Calf thymus DNA; assay: Binding affinity to calf thymus DNA assessed as compound-DNA complex formation by absorbance based assay; type: nucleic-acid assay; conditions: Bos taurus
[44] = tested on: Acinetobacter baumannii; assay: Antibacterial activity against Acinetobacter baumannii assessed as decrease in LDH activity incubated for 6 hrs by LDH assay; type: functional, organism-based
[45] = Hemolytic activity in human RBC at 512 times MIC measured after 8 hrs by absorbance based assay relative to control; type: toxicity, cell-based, Erythrocyte; conditions: red blood cells (erythrocytes), read-out: Activity
[46] = Tmax in Kunming mouse at 10 mg/kg, po measured upto 24 hrs by LC-MS analysis; type: ADME, organism-based; conditions: in vivo
[47] = AUMC (0 to infinity) in Kunming mouse at 10 mg/kg, po measured upto 24 hrs by LC-MS analysis; type: ADME, organism-based; conditions: in vivo
[48] = AUC (0 to t) in Kunming mouse at 10 mg/kg, iv measured upto 24 hrs by LC-MS analysis; type: ADME, organism-based; design: time < 24 hrs, dose 10 mg/kg, route iv; conditions: in vivo

In the case of `OCCN(CCO)c1nccc(-n2cncn2)n1`, the MRT last at 24 h [1] is reported as 2.61 h, the viability at 24 h [2] is reported as 85% and the Activity [3] is reported as “inactive”. The Activity [4] was 39.1%, the MIC [5] was 1 µM (≈ 0.25 µg/mL) and the Tmax [6] was 1.98 min. The MIC [7] was 1020 µM (≈ 256 µg/mL), the Activity [8] was “Dose-Dependent Effect” and the viability at 24 h [9] was > 75%. The Cmax [10] was 2130 ng/mL, the Activity [11] was “Active” and the MIC [12] was 8 µM (≈ 2 µg/mL). For the same compound, the MIC [13] was 128 µM (≈ 32 µg/mL), the F [14] was 35.41% and the Vd [15] was 2.1 L/kg. For the same compound, the viability at 24 h, 256 µM [16] was 80%, the AUMC [17] was 8598 hr.hr.ng/ml and the Activity [18] was “Non-Toxic”. The Activity [19] was “inactive”, the AUMCt [20] was 5446 hr.hr.ng/ml and the K [21] was 1.7 10^3L/mol. The MIC [22] was 512 µM (≈ 128 µg/mL), the MIC [23] was 1 µM (≈ 0.25 µg/mL) and the Activity [24] was “inactive”. For the same compound, the Activity [25] was “inactive”, the Activity [26] was “inactive” and the MRT inf [27] was 4.67 h. The Activity [28] was “inactive”, the Cmax [29] was 1990 ng/mL and the Activity [30] was “Non-Toxic”. It also gave an MIC [31] of 8 µM (≈ 2 µg/mL), a CL/F [32] of 20.7 mL/min/kg and an MRT last at 24 h [33] of 3.97 h. For the same compound, the AUMCt [34] was 31290 hr.hr.ng/ml, the Activity [35] was “Dose-Dependent Effect” and the C0 at 24 h [36] was 2590 ng/mL. It also gave an MIC [37] of 512 µM (≈ 128 µg/mL), an MIC [38] of 1020 µM (≈ 256 µg/mL) and an MIC [39] of 1020 µM (≈ 256 µg/mL). For the same compound, the Activity [40] was “inactive”, the “log(activity)” value [41] was 3.5 and the CL [42] was 8.43 mL/min/kg. The Activity [43] was “Active”, the Activity [44] was “Dose-Dependent Effect” and the hemolysis at 8 h, 512 times MIC [45] was 1.5%. The Tmax [46] was 0.58 h, the AUMC [47] was 37723 hr.hr.ng/ml and the AUC(0-t) at 24 h [48] was 2080 ng·h/mL.

From ChEMBL document CHEMBL5380831, “Azolylpyrimidinediols as Novel Structural Scaffolds of DNA-Groove Binders against Intractable Acinetobacter baumannii” (J Med Chem, 2023)
